Measurements: patent publication US5407940A, “New ellipticine compounds” (priority 1992, dated 1995)
Where two headings read alike, the source gives them in different places.

Assays:
[1] = test system: L1210; assay: Cytotoxicity, line L1210 (Microculture Tetrazolium Assay); type: cell-based, murine; conditions: Mus musculus, L1210, 48 h, read-out: Cytotoxicity IC50, line L1210
From the text: (§1) The cells are distributed on microplates and exposed to the cytotoxic compounds.

[2] = test system: M5076 sarcoma; assay: Anti-tumour activity against M5076 sarcoma; type: in vivo, female B6D2F1 mice; conditions: for Survivors on d90 / median T/C (survival): i.p., d1, d5, d9, d13
Method: (§2) M5076 sarcoma is supplied by NCI (Frederick, USA). The tumour cells (10^7 cells/animal) were inoculated on d0 into the peritoneal cavity of female B6D2F1 mice. The compounds were administered by the i.p. route on d1, d5, d9 and d13 at the doses indicated. The surviving animals on d90 were recorded and the T/C survival (%) was calculated.

[3] = Anti-tumour activity against M5076 sarcoma; type: in vivo, female B6D2F1 mice; conditions: mouse, in vivo, ip; read-out: maximum tolerated dose
Method: as §2

[4] = test system: KB-A1
[5] = test system: KB-A1; assay: cells; conditions: Homo sapiens, KB-A1, 96 h, read-out: Cytotoxicity IC50, resistant KB-A1
[6] = test system: leukaemia P388; assay: Anti-tumour activity against leukaemia P388 in vivo; conditions: for Survivors on d60/total no. of mice / T/C: intraperitoneal, day 1; for cures, treated mice (comparators): reference compounds, dose not given
[7] = test system: KB-3-1; assay: Cytotoxicity, sensitive line KB-3-1; type: cell-based; conditions: Homo sapiens, KB 3-1, 96 h, read-out: Cytotoxicity IC50, sensitive KB-3-1
From the text: as §1

[8] = test system: Lewis pulmonary carcinoma; assay: Anti-tumour activity against Lewis pulmonary carcinoma; type: in vivo, female B6D2F1 mice; conditions: for Survivors on d90 / median T/C (survival) / median T/C (volume) d20: i.v., d3, d6, d9
[9] = test system: P388; assay: Cytotoxicity, sensitive line P388 (Microculture Tetrazolium Assay); type: cell-based, murine; conditions: Mus musculus, P388, 48 h, read-out: Cytotoxicity IC50, sensitive P388
From the text: as §1

[10] = test system: colon 38; assay: Anti-tumour activity against colon 38; type: in vivo, female B6D2F1 mice; conditions: 15 mg/kg, i.v., d2 and d9, d25
Method: Colon 38 (supplied by NCI, Frederick, USA) was inserted in the form of fragments by the subcutaneous route into female B6D2F1 mice. The compounds were administered by the i.v. route on d2 and d9 and the anti-tumour activity was determined on […] by measuring the tumour volume (T/C volume, %).

[11] = test system: S1; assay: Cytotoxicity, sensitive line S1; type: cell-based; conditions: Homo sapiens, 96 h, read-out: Cytotoxicity IC50, sensitive S1
From the text: as §1

[12] = test system: leukaemia P388; conditions: mouse, in vivo
[13] = test system: P388/VCR-20; assay: cells; conditions: Mus musculus, P388, 48 h, read-out: Cytotoxicity IC50, resistant P388/VCR-20
[14] = maximum tolerated dose (2 mg/kg)

Cc1c2cc[n+](C)cc2c(C)c2c1[nH]c1ccc(O)cc12 [elliptinium acetate, reference compound]
IC50 [1]: 139 nM
Survivors on d90 ([2]; 1 mg/kg): 1/10
median T/C (survival) ([2]; 1 mg/kg): 153%
Survivors on d90 ([2]; 2 mg/kg): 0/10
median T/C (survival) ([2]; 2 mg/kg): 180%
activity against that tumour (in words) [2, 14]: not very active
survivors [2, 14]: no animal has survived
MTD [3]: 2 mg/kg
resistance factor [4]: 19
IC50 [5]: 4320 nM
Survivors on d60/total no. of mice ([6]; 5 mg/kg): 0/10
T/C ([6]; 5 mg/kg): 171%
gravimetric variation ([6]; at the optimum dose used, equitoxic doses): -4 g
toxic at dose and above ([6]; mouse, in vivo): ≥ 5 mg/kg
cures, treated mice (comparators) [6]: none
IC50 [7]: 226 nM

COc1cccc2c1C(=O)c1c(O)c3c(c(O)c1C2=O)C[C@@](O)(C(=O)CO)C[C@@H]3O[C@H]1C[C@H](N)[C@H](O)[C@H](C)O1 [ADR, adriamycin, reference compound]
IC50 [1]: 26.4 nM
Survivors on d90 ([2]; 5 mg/kg): 4/10
median T/C (survival) ([2]; 5 mg/kg): 320%
Survivors on d90 ([8]; 5 mg/kg): 2/10
median T/C (survival) ([8]; 5 mg/kg): 125%
median T/C (volume) d20 ([8]; 5 mg/kg): 44%
Survivors on d90 ([8]; 10 mg/kg): 3/10
median T/C (survival) ([8]; 10 mg/kg): 128%
median T/C (volume) d20 ([8]; 10 mg/kg): 1%
Survivors on d90 ([8]; 2,5 mg/kg): 0/10
median T/C (survival) ([8]; 2,5 mg/kg): 108%
median T/C (volume) d20 ([8]; 2,5 mg/kg): 63%
activity against this very resistant model (in words) ([8]; adriamycin at the maximum tolerated dose): far less active
IC50 [9]: 20 nM
median T/C (tumour volume) [10]: 0%
IC50 [11]: 36 nM
IC50 [5]: 6870 nM
Survivors on d60/total no. of mice ([6]; 10 mg/kg): 2/10
T/C ([6]; 10 mg/kg): 290%
cures, treated mice (comparators) [6]: 2
IC50 [7]: 5 nM
gravimetric variation [12]: -0.7 g
IC50 [13]: 340 nM
